From patent US8481551B2, “Gyrase and topoisomerase IV inhibitors” (Vertex Pharmaceuticals Incorporated, priority 2011, dated 2013) come the findings set out here.

Data set [1] can be described thus: Pharmacokinetics, rat IV study. To be noted: male Sprague Dawley rats, plasma, analyte as labelled; for AUC: male, Sprague Dawley, rat, iv.
The test system of another data set is S. aureus (ATCC 29213). Nature of the data set: Mouse S. aureus kidney infection model. The format is in vivo, CD-1 mice. To be noted: after 24 hours. The procedure: Animals: female CD-1 mice (8-10 weeks of age; 6/group), were obtained from Charles River Laboratories and were housed and maintained in accordance with the Guide to the Care and Use of Experimental Animals. Methicillin-sensitive S. aureus (MSSA) strain ATCC 29213 was obtained from the American Type Culture Collection. To prepare stocks for animal studies S. aureus was plated on Mueller Hinton Agar plates and incubated at 37° C. overnight. 3-4 colonies from the plate were used to inoculate 5 mL Mueller Hinton Broth (MHB) that was incubated for 8 hours at 37° C. with shaking at 300 RPM. The 5 mL 8-hour culture was diluted 20-fold into 100 mL and incubated overnight (12-14 hours). The bacteria were pelleted for 20 minutes at 3000× and washed twice with Phosphate-Buffered Saline (PBS) containing 0.5% Bovine Serum Albumin (BSA). Aliquots (1 mL) containing ˜1×10^10 cfu in PBS/20% Glycerol were frozen and stored at −80° C. until the day of use. Stock titers were confirmed by serial dilution and plating on Mueller Hinton agar plates. Prior to inoculation, bacterial stocks were thawed and washed once with PBS/BSA. The stocks were then diluted with PBS/BSA to a final concentration of 1×10^9 cfu/mL to give an inoculum of approximately 1-2×10^8 cfu per mouse in a volume of 100 uL. […] Injections were given intravenously via the tail vein using a sterile 30 gauge needle. Upon completion of the mouse infections, the bacterial stocks used to challenge the mice were plated and counted to verify the concentration of the inocula. […] Fisher Scientific). During collection and homogenization all of the samples were kept on ice and the homogenizer was washed thoroughly and sterilized between each sample. Homogenates were serially diluted in sterile PBS/BSA and plated on MH agar to determine bacterial counts per pair of kidneys. CD-1 mice (6/group) were challenged IV with S. aureus (ATCC 29213) at 2×10^8 cfu/mouse. […] The 30-minute and 6-hour treatment groups were treated once, while the 24-hour group received a second treatment 10 hours after the first dose. […] Burdens from pairs of kidneys for each mouse and the median for each group of mice were calculated. CD-1 mice (6/group) were challenged IV with S. aureus (ATCC 29213) at 2×10^8 cfu/mouse. After 2 hours a single group of mice (Early Control (EC)) was euthanized and the kidneys harvested, homogenized and plated to quantitate S. aureus burdens. The additional groups of infected mice were treated via oral gavage with Vehicle at 10 ml/kg (10% VitE TPGS; […] After 24 hours the groups of treated mice were euthanized and the kidneys harvested, homogenized and plated to quantitate S. aureus burdens. Burdens from pairs of kidneys for each mouse and the median for each group of mice were summarized. CD-1 mice (8/group) were challenged IV with S. aureus (ATCC 29213) at 2×10^8 cfu/mouse. After 2 hours a single group of mice (Early Control (EC)) was euthanized and the kidneys harvested, homogenized and plated to quantitate S. aureus burdens. The additional groups of infected mice were treated via oral gavage with Vehicle at 10 ml/kg (Water; […] After 24 hours the groups of treated mice were euthanized and the kidneys harvested, homogenized and plated to quantitate S. aureus burdens. Burdens from pairs of kidneys for each mouse and the median for each group of mice were summarized.

In another data set the test system is Streptococcus pneumoniae. Nature of the data set: Gyrase MIC, microdilution broth method (Protocol 1). To be noted: ATCC10015. (Dilution methods test growth across graded concentrations, often in twofold steps.)
Where [2] appears, read: Compound W 1 mg/kg single IV bolus in D5W.
[3] abbreviates: Compound W 5 mg/kg single IV bolus in D5W.
[4] abbreviates: 1 mg/kg, AUC, Compound W 1 mg/kg single IV bolus in D5W.
The mark [5] stands for this setting: 1 mg/kg, AUCextrap, Compound W 1 mg/kg single IV bolus in D5W.
Setting [6] is: 5 mg/kg, AUC, Compound W 5 mg/kg single IV bolus in D5W.
Where [7] appears, read: 5 mg/kg, AUCextrap, Compound W 5 mg/kg single IV bolus in D5W.
Where [8] appears, read: single oral dose 16 (10) mg/kg Compound W.
The mark [9] stands for this setting: single oral dose 49 (30) mg/kg Compound W.
[10] abbreviates: single oral dose 99 (60) mg/kg Compound W.
[11] abbreviates: single oral dose 166 (100) mg/kg Compound W.

As for `CCNC(=O)Nc1nc2cc(-c3cnc(C(C)(C)O)nc3)c(F)c([C@H]3CCCO3)c2[nH]1` [Compound 23, 1-ethyl-3-[6-fluoro-5-[2-(1-hydroxy-1-methyl-ethyl)pyrimidin-5-yl]-7-[(2R)-tetrahydrofuran-2-yl]-1H-benzimidazol-2-yl]urea], the Cl_obs in data set [1] (setting [2]) was determined as 54.9 mL/min/kg; in data set [1] (setting [3]) it was 27.3 mL/min/kg. Besides, the Vss_obs in data set [1] (setting [2]) turned out to be 3.8 L/kg; in data set [1] (setting [3]), 4.08 L/kg. Besides, the AUC (in general, the area under the concentration-time curve, a measure of exposure) came out at 306 ng·h/mL in data set [1] (setting [4]), 310 ng·h/mL in data set [1] (setting [5]), 3040 ng·h/mL in data set [1] (setting [6]) and 3060 ng·h/mL in data set [1] (setting [7]).

`CCNC(=O)Nc1nc2cc(-c3cnc(C(C)(C)OP(=O)([O-])[O-])nc3)c(F)c([C@H]3CCCO3)c2[nH]1.[Na+].[Na+]` [Compound W, disodium (R)-2-(5-(2-(3-ethylureido)-6-fluoro-7-(tetrahydrofuran-2-yl)-1H-benzo[d]imidazol-5-yl)pyrimidin-2-yl)propan-2-yl phosphate]: the “Median Kidney Burden (Log10 CFU/kidneys)” value is reported as 3.69 Log10 CFU/kidneys in the data set on S. aureus (ATCC 29213) (single oral dose 16 (10) mg/kg Compound W (dose equivalent in brackets)), 3.22 Log10 CFU/kidneys with S. aureus (ATCC 29213) (setting [9]), 3.32 Log10 CFU/kidneys in the data set with S. aureus (ATCC 29213) (setting [10]) and 2.94 Log10 CFU/kidneys in the data set on S. aureus (ATCC 29213) (setting [11]). Further, the “Log10 Difference vs. Early Control” value in the data set on S. aureus (ATCC 29213) (setting [8]) is −0.71; with S. aureus (ATCC 29213) (setting [9]) it was −1.18; with S. aureus (ATCC 29213) (setting [10]) it was −1.08; with S. aureus (ATCC 29213) (setting [11]), −1.46. Further, the “Log10 Difference vs. Late Control” value with S. aureus (ATCC 29213) (setting [8]) is given as −2.25; in the data set on S. aureus (ATCC 29213) (setting [9]) it was −2.72; with S. aureus (ATCC 29213) (setting [10]), −2.62; in the data set on S. aureus (ATCC 29213) (setting [11]), −3.00. The “reduction of bacterial burdens versus the early control” value in the data set on S. aureus (ATCC 29213) (single oral doses of 16, 49, 99 and 166 mg/kg Compound W) is 0.7-1.5 logs. Further, the Cl_obs came out at 46.7 mL/min/kg in data set [1] (setting [2]) and 84.6 mL/min/kg in data set [1] (setting [3]). Besides, the Vss_obs in data set [1] (setting [2]) is reported as 0.38 L/kg; in data set [1] (setting [3]) it was 5.8 L/kg. Also, the AUC in data set [1] (setting [4]) turned out to be 416 ng·h/mL; in data set [1] (setting [5]), 419 ng·h/mL; in data set [1] (setting [6]), 1110 ng·h/mL; in data set [1] (setting [7]), 1120 ng·h/mL. 0.25 µg/mL was the least that counted as inhibitory against Streptococcus pneumoniae (MIC).
